The source made the active and inactive calls.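 How the source made its calls: active means EC50 no more than a set limit of log units above the highest dose; inactive means the rest.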

The target of the experiment is S. pyogenes SKKanGAS, kanamycin survival, BacTiterGlo, 6 h. Put plainly: S. pyogenes SKKanGAS kanamycin growth inhibitors – SKKanGAS strain, luminescence, dose confirmation, streptokinase promoter inhibitor project, dose response (AID 1902).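 Further: lower survival reflects blocked streptokinase promoter driving kanamycin resistance gene.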
What is called EC50 is the midpoint of the concentration-response curve. Regarding `O=C(CSC(=S)N1CCCCC1)Nc1nc(-c2ccccc2)c(-c2ccccc2)o1`, the EC50 is 1760 nM.

In the case of `O=C(NC(=S)NNC(=O)c1ccccc1O)c1ccco1`, the EC50 was 3060 nM.

In the case of `CCCOc1ccc(C2C(C(=O)c3cc4ccccc4o3)=C(O)C(=O)N2c2cc(C)on2)cc1OC` (stereo unspecified), the EC50 was 1980 nM.

`COc1cccc(CNCC(O)(c2ccc(Cl)cc2)c2ccc(Cl)cc2)c1`: the EC50 is 3700 nM.

As for `COc1ccc2c(C)nc(Nc3nc(-c4ccccc4)cc(=O)[nH]3)nc2c1`, the EC50 is 2750 nM.

Take `O=C1/C(=C\c2cc([N+](=O)[O-])ccc2O)SC(=S)N1Cc1ccc(Cl)cc1`: the EC50 was 2180 nM.

In the case of `CCOC(=O)C1=C(C)n2c(s/c(=C/c3cccc([N+](=O)[O-])c3)c2=O)=NC1c1ccc(O)c(OC)c1` (stereo unspecified), the EC50 was 10500 nM.

On to `Cc1ccc(C(=O)NNC2=Nc3cccc4cccc2c34)cc1`, for which the EC50 is 3140 nM.

As for `Cc1cc([N+](=O)[O-])cc(/C=N\NC(=O)C2COc3ccccc3O2)c1O` (stereo unspecified), the EC50 is 1520 nM.

Turning to `COc1cc(NC(=O)CSc2ncnc3sc4c(c23)CCCC4)c(C(=O)O)cc1OC`, the EC50 was 12000 nM.

Turning to `CCc1ccc(S(=O)(=O)/N=C2\C=C(Nc3ccc(C(=O)O)cc3)C(=O)c3ccccc32)cc1`, the EC50 was 444 nM.

Consider `COc1ccc(OC)c(NC(=O)NC2CCCc3ccccc32)c1` (stereo unspecified), for which the EC50 was > 15000 nM (inactive).

Consider `COc1ccc(O)c(/C=N/Nc2nc(Nc3ccccc3)nc(-n3nc(C)cc3C)n2)c1`, for which the EC50 was 868 nM.

For `CCN(c1ccc(C)cc1C)S(=O)(=O)c1nnc(NC(=O)c2ccco2)s1`, the EC50 was 4200 nM.

As for `O=C(Cc1cccs1)N/N=C/c1ccco1`, the EC50 was 2900 nM.

Regarding `CCc1c(C)sc2nc(C(C)C)nc(SCC(=O)N3CCc4ccccc4C3)c12`, the EC50 is 7890 nM.

Take `CSc1nc2nccc(-c3ccc(-c4ccccc4)cc3)n2n1`: the EC50 is 3080 nM.

Consider `CCC(=O)N1N=C(c2c(O)n(C)c(=O)n(C)c2=O)CC1c1ccccc1` (stereo unspecified), for which the EC50 is 2420 nM.

With `COc1ccc(N=Nc2ccc(O)c3ncccc23)cc1`, the EC50 is less than 60 nM.

On to `CCc1noc(C)c1C(=O)OCC(=O)NC(=O)c1ccccc1`, for which the EC50 was > 15000 nM (inactive).

Take `COc1cc(C(=O)NC(=S)N(CCc2ccccc2)CCc2ccccc2)cc(OC)c1OC`: the EC50 is 328 nM.

Turning to `Cc1cc(C)c2nc(NNC(=O)c3cc(=O)c4ccccc4o3)sc2c1`, the EC50 was 165 nM.

As for `CCCc1ccc(Oc2cn[nH]c2-c2ccc(O)c(C)c2O)cc1`, the EC50 is 1800 nM.

`COc1cnc(-c2ccccn2)nc1Oc1ccc(C(C)(C)C)cc1`: the EC50 was 7680 nM.

In the case of `CCCCCC(=O)NC(=S)NC1C2CC3CC(C2)CC1C3` (stereo unspecified), the EC50 was 3830 nM.

On to `CCOC(=O)c1sc2ncnc(N3CCN(c4ccc(OC)cc4)CC3)c2c1C`, for which the EC50 was 10300 nM.

As for `CCn1cc(C(=O)O)c(=O)c2cc(F)c(N3CCN(S(=O)(=O)c4ccc5c(c4)OCCO5)CC3)cc21`, the EC50 was 2900 nM.

With `CCc1cccc2c(C(=O)COC(=O)c3ccc([N+](=O)[O-])s3)c[nH]c12`, the EC50 was 735 nM.

For the compound `Cc1cccc(NC(=S)/N=C(\N)Nc2nc(C)c3ccc(C)cc3n2)c1`, the EC50 is > 15000 nM (inactive).

As for `COc1ccc(C(=O)NC2CCCCCC2)cc1S(=O)(=O)N1CCOCC1`, the EC50 was > 15000 nM (inactive).

With `CCC(=C/c1sc2ccc3ccccc3c2[n+]1C)/C=C1\Sc2ccc3ccccc3c2N1C`, the EC50 is 2670 nM.

As to `COc1ccc(-c2noc(-c3ccccc3-c3ccccc3)n2)cc1`, the EC50 was 8180 nM.

In the case of `CCn1cc(C(=O)NCc2ccc3c(c2)OCO3)c(=O)c2cc(F)c(N3CCN(C(=O)c4ccco4)CC3)cc21`, the EC50 is 9900 nM.

In the case of `Cc1ccc(C(=O)N/N=C/c2cc(Br)ccc2O)cn1`, the EC50 is 2480 nM.

`O=C(Cn1nnc(-c2ccccc2)n1)N/N=C/c1cc([N+](=O)[O-])ccc1O`: the EC50 was 750 nM.

As to `CCOc1ccc(-n2c(C)cc(/C=C3/C(=N)N4C(=NC3=O)SN=C4S(C)(=O)=O)c2C)cc1`, the EC50 was 938 nM.

`CCOC(=O)c1csc(N/N=C2\CCCc3ccccc32)n1`: the EC50 is 11000 nM.

Turning to `Cc1nc(=S)c2c([nH]1)-c1ccccc1CC21CCCCC1`, the EC50 is 945 nM.

Turning to `CC1CCN(C(=O)N2c3ccccc3Sc3ccccc32)CC1`, the EC50 is 9990 nM.

For the compound `O=[N+]([O-])c1c(NCCCO)cc(Sc2nc3ccccc3s2)c2nonc12`, the EC50 was 2000 nM.

`CCOC(=O)c1cnc(-n2nc(C)cc2C)nc1NCc1ccccc1`: the EC50 is 4140 nM.

In the case of `CCOC(=O)c1nnn(-c2nonc2-n2cccc2)c1CN1CCC(C)CC1`, the EC50 was 8020 nM.

In the case of `Cn1ccc(=Nc2ccc(NC(=O)c3ccc(N=c4ccn(C)c5ccc([N+](=O)[O-])cc45)cc3)cc2)cc1`, the EC50 was 357 nM.

Turning to `O=C(CSc1nnc(NC(=O)c2cccc(Cl)c2)s1)NCC1CCCO1` (stereo unspecified), the EC50 was > 15000 nM (inactive).

For `CC1C(=O)C(C)C(c2cc(Cl)ccc2O)NC1c1cc(Cl)ccc1O` (stereo unspecified), the EC50 is 2320 nM.

On to `O=c1c2cc(Br)ccc2nc(-c2cccc(Cl)c2)n1O`, for which the EC50 is 1090 nM.

Regarding `O=C(CCCCCNC(=O)c1ccccc1)N=Nc1c(O)[nH]c2c(Br)cc(Br)cc12`, the EC50 is 5430 nM.

Turning to `CCn1c(C)nc2cc(C(=O)NNC(=S)NC(=O)c3ccc(OC)cc3)ccc21`, the EC50 was 5870 nM.

`Cc1ccc2nc(-c3ccc(NS(=O)(=O)c4ccc(F)cc4)cc3)sc2c1`: the EC50 was 3310 nM.

For the compound `C[N+](C)(C)c1ccc(/C=N/Nc2nc(Cl)c(C#N)c(Cl)c2Cl)cc1`, the EC50 was > 15000 nM (inactive).

With `Fc1ccccc1CNc1ccc(Cl)c(Cl)c1`, the EC50 is 15600 nM.

In the case of `O=C(Nc1cc([N+](=O)[O-])ccc1O)c1cccc(NC(=O)c2ccco2)c1`, the EC50 is 2780 nM.

Consider `Cc1ccc(O)c(C(=O)CC(=O)c2ccc(C(C)(C)C)cc2)c1`, for which the EC50 was 2600 nM.

`CCC(C(=O)N1CCC(N2CCCCC2)CC1)n1nc(C)c2sc3ccccc3c2c1=O` (stereo unspecified): the EC50 is > 15000 nM (inactive).

With `C[C@H]1CC[C@@]2(C)[C@@H](CC[C@@H]3[C@@H]2CC[C@]2(C)[C@@H](O)CC[C@@H]32)C1`, the EC50 is 856 nM.

For the compound `COc1ccc(C2CC(c3cccs3)=NN2C(=O)CSc2nc3c(cnn3-c3ccccc3)c(=O)[nH]2)cc1` (stereo unspecified), the EC50 is 2110 nM.

Turning to `Cc1sc2cc3c(c(C(=O)c4ccccc4)[n+]2c1C)-c1cccc2cccc-3c12`, the EC50 was 6660 nM.

Consider `CN(Cc1cnc2nc(N)nc(N)c2n1)c1ccc(C(=O)N[C@@H](CCC(=O)O)C(=O)O)cc1`, for which the EC50 is 610 nM.

On to `CCc1sc(N(C(=O)Cc2ccccc2)c2cccc(F)c2)nc1-c1ccc(C)cc1`, for which the EC50 was 1770 nM.

As to `Clc1ccc(-c2ccc(/C=N/Nc3cc(N4CCOCC4)nc(N4CCOCC4)n3)o2)cc1`, the EC50 is 15700 nM.

Take `CCOC(=O)c1c(NS(=O)(=O)c2ccc(Br)cc2)sc2c1CCC2`: the EC50 was 1600 nM.

On to `COc1ccc(Cn2c(-c3ccco3)nc3oc4cc(OC)ccc4c(=O)c3c2=O)cc1`, for which the EC50 was 14700 nM.

On to `CCOC(=O)C1=C(c2ccc(OC)cc2)C(=O)c2ccccc2C1=O`, for which the EC50 is 1780 nM.

For `COc1cccc(C2CC(c3cccs3)=NN2C(=O)CSc2nc3c(cnn3-c3ccc(F)cc3)c(=O)[nH]2)c1OC` (stereo unspecified), the EC50 was 2030 nM.

Consider `C/C(=N\NC(=O)COc1ccc(C)cc1C(C)C)c1cc2ccccc2o1`, for which the EC50 is 11000 nM.

With `CC(C)OC(=O)c1c(NS(=O)(=O)c2ccccc2)sc2c1CCCC2`, the EC50 is 3880 nM.
